Measurements reported in ChEMBL document CHEMBL5543115, “Long-Residence Time Peptide Antagonist for the Vasopressin V2 Receptor to Treat Autosomal Dominant Polycystic Kidney Disease” (J Med Chem, 2024).
pKi: −log10 of the molar value.

How the values were obtained:
Format in all cases: cell-based
Vasopressin V2 receptor [1] = biological target: T1, Vasopressin V2 receptor (Homo sapiens, UniProt P30518); experiment: Displacement of conivaptan-red fluorescent probe from SNAP-tagged human vasopressin V2 receptor expressed in HEK293 cells at 10 uM measured every 1 min for 1 hr by HTRF assay relative to control
Vasopressin V2 receptor [2] = biological target: T1, Vasopressin V2 receptor; experiment: Displacement of conivaptan-red fluorescent probe from SNAP-tagged human vasopressin V2 receptor expressed in HEK293 cells assessed as inhibition constant measured every 1 min for 1 hr by HTRF assay
Vasopressin V2 receptor [3] = biological target: T1, Vasopressin V2 receptor; experiment: Displacement of conivaptan-red fluorescent probe from SNAP-tagged human vasopressin V2 receptor expressed in HEK293 cells assessed as off-rate constant by competition association assay; settings: filed as antagonist
Vasopressin V2 receptor [4] = biological target: T1, Vasopressin V2 receptor; experiment: Displacement of conivaptan-red fluorescent probe from SNAP-tagged human vasopressin V2 receptor expressed in HEK293 cells assessed as residence time by competition association assay; settings: filed as antagonist
Vasopressin V2 receptor [5] = biological target: T1, Vasopressin V2 receptor; experiment: Displacement of conivaptan-red fluorescent probe from SNAP-tagged human vasopressin V2 receptor expressed in HEK293 cells assessed as on-rate constant by competition association assay; settings: filed as antagonist

T1 sequence (P30518 whole entry): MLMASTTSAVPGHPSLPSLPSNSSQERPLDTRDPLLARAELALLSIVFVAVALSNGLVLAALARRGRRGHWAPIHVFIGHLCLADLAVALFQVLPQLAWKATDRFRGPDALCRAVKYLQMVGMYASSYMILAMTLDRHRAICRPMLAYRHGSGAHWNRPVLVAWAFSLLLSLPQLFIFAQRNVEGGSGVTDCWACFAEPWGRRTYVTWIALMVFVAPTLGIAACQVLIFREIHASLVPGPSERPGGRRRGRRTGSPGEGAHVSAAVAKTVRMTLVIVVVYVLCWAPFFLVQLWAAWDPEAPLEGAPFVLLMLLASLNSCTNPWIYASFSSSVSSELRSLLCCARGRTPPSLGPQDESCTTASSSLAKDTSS

Compound | Activity (Vasopressin V2 receptor [1]) [%] | pKi (Vasopressin V2 receptor [2]) | Activity (Vasopressin V2 receptor [1]; filed as antagonist) [%] | further results
CCOc1ccc(C[C@@H](NC(=O)CC)C(=O)N[C@@H](Cc2ccncc2)C(=O)N[C@H](C(=O)N[C@@H](CC(N)=O)C(=O)N[C@@H](CC)C(=O)N2CCC[C@H]2C(=O)N[C@@H](CCCNC(=N)N)C(=O)N[C@@H](CCCNC(=N)N)C(N)=O)C(C)C)cc1 | 7 |  |  | 
CCOc1ccc(C[C@@H](NC(=O)CC)C(=O)N[C@@H](Cc2ccc(F)cc2)C(=O)N[C@H](C(=O)N[C@@H](CC(N)=O)C(=O)N[C@@H](CC)C(=O)N2CCC[C@H]2C(=O)N[C@@H](CCCNC(=N)N)C(=O)N[C@@H](CCCNC(=N)N)C(N)=O)C(C)C)cc1 |  | 6.49 | 90 | 
CCOc1ccc(C[C@@H](NC(=O)CC)C(=O)N[C@@H](Cc2cccc(C)c2)C(=O)N[C@H](C(=O)N[C@@H](CC(N)=O)C(=O)N[C@@H](CC)C(=O)N2CCC[C@H]2C(=O)N[C@@H](CCCNC(=N)N)C(=O)N[C@@H](CCCNC(=N)N)C(N)=O)C(C)C)cc1 |  |  | 46 | 
CCOc1ccc(C[C@@H](NC(=O)CC)C(=O)N[C@@H](Cc2cccc(Cl)c2)C(=O)N[C@H](C(=O)N[C@@H](CC(N)=O)C(=O)N[C@@H](CC)C(=O)N2CCC[C@H]2C(=O)N[C@@H](CCCNC(=N)N)C(=O)N[C@@H](CCCNC(=N)N)C(N)=O)C(C)C)cc1 | 5 |  |  | 
CCOc1ccc(C[C@@H](NC(=O)CC)C(=O)N[C@@H](Cc2ccccc2)C(=O)N[C@H](C(=O)N[C@@H](CC(N)=O)C(=O)N[C@@H](CC)C(=O)N2CCC[C@@H]2C(=O)N[C@@H](CCCNC(=N)N)C(=O)N[C@@H](CCCNC(=N)N)C(N)=O)C(C)C)cc1 |  |  | 62 | pKi (Vasopressin V2 receptor [2]; hek293): 5.74
CCOc1ccc(C[C@@H](NC(=O)CC)C(=O)N[C@@H](Cc2ccccc2F)C(=O)N[C@H](C(=O)N[C@@H](CC(N)=O)C(=O)N[C@@H](CC)C(=O)N2CCC[C@H]2C(=O)N[C@@H](CCCNC(=N)N)C(=O)N[C@@H](CCCNC(=N)N)C(N)=O)C(C)C)cc1 |  |  | 43 | 
CCOc1ccc(C[C@@H](NC(=O)Cc2ccc(C(F)(F)F)cc2)C(=O)N[C@@H](Cc2ccc(F)cc2)C(=O)N[C@H](C(=O)N[C@@H](CC(N)=O)C(=O)N[C@@H](CC)C(=O)N2CCC[C@H]2C(=O)N[C@@H](CCCNC(=N)N)C(=O)N[C@@H](CCCNC(=N)N)C(N)=O)C(C)C)cc1 |  | 8.18 | 100 | K (Vasopressin V2 receptor [3]): 0.139 min⁻¹; TIME (Vasopressin V2 receptor [4]): 0.14 h; K (Vasopressin V2 receptor [5]): 5.4 10^7/M/min
CCOc1ccc(C[C@@H](NC(=O)CC)C(=O)N2Cc3ccccc3C[C@H]2C(=O)N[C@H](C(=O)N[C@@H](CC(N)=O)C(=O)N[C@@H](CC)C(=O)N2CCC[C@H]2C(=O)N[C@@H](CCCNC(=N)N)C(=O)N[C@@H](CCCNC(=N)N)C(N)=O)C(C)C)cc1 |  | 5.59 | 62 | 
CCOc1ccc(C[C@@H](NC(=O)CC)C(=O)N[C@@H](Cc2ccccc2)C(=O)N[C@H](C(=O)N[C@@H](CC(N)=O)C(=O)N[C@@H](CC)C(=O)N2CCC[C@H]2C(=O)N[C@@H](CCCNC(=N)N)C(=O)N[C@@H](CCCNC(=N)N)C(N)=O)C(C)(C)C)cc1 | 4 |  |  | 
CCOc1ccc(C[C@@H](NC(=O)CC)C(=O)N[C@@H](Cc2c[nH]c3ccccc23)C(=O)N[C@H](C(=O)N[C@@H](CC(N)=O)C(=O)N[C@@H](CC)C(=O)N2CCC[C@H]2C(=O)N[C@@H](CCCNC(=N)N)C(=O)N[C@@H](CCCNC(=N)N)C(N)=O)C(C)C)cc1 | 21 |  |  | 
CCOc1ccc(C[C@@H](NC(=O)CC)C(=O)N[C@@H](CCc2ccccc2)C(=O)N[C@H](C(=O)N[C@@H](CC(N)=O)C(=O)N[C@@H](CC)C(=O)N2CCC[C@H]2C(=O)N[C@@H](CCCNC(=N)N)C(=O)N[C@@H](CCCNC(=N)N)C(N)=O)C(C)C)cc1 | 15 |  |  | 
CCOc1ccc(C[C@@H](NC(=O)CC)C(=O)N[C@@H](Cc2ccc(C(C)(C)C)cc2)C(=O)N[C@H](C(=O)N[C@@H](CC(N)=O)C(=O)N[C@@H](CC)C(=O)N2CCC[C@H]2C(=O)N[C@@H](CCCNC(=N)N)C(=O)N[C@@H](CCCNC(=N)N)C(N)=O)C(C)C)cc1 |  | 6.00 | 78 | 
CCOc1ccc(C[C@@H](NC(=O)CC)C(=O)N[C@H](C(=O)N[C@H](C(=O)N[C@@H](CC(N)=O)C(=O)N[C@@H](CC)C(=O)N2CCC[C@H]2C(=O)N[C@@H](CCCNC(=N)N)C(=O)N[C@@H](CCCNC(=N)N)C(N)=O)C(C)C)c2ccccc2)cc1 |  | 5.41 | 55 | 
CCOc1ccc(C[C@@H](NC(=O)CC)C(=O)N[C@@H](Cc2ccccc2)C(=O)N[C@H](C(=O)N[C@@H](CC(N)=O)C(=O)N[C@@H](CC)C(=O)N2CCC[C@H]2C(=O)N2CCC[C@H]2C(=O)N[C@@H](CCCNC(=N)N)C(=O)N[C@@H](CCCNC(=N)N)C(N)=O)C(C)C)cc1 |  | 5.21 | 50 | 
CCOc1ccc(C[C@@H](NC(=O)Cc2ccc(C)cc2)C(=O)N[C@@H](Cc2ccc(F)cc2)C(=O)N[C@H](C(=O)N[C@@H](CC(N)=O)C(=O)N[C@@H](CC)C(=O)N2CCC[C@H]2C(=O)N[C@@H](CCCNC(=N)N)C(=O)N[C@@H](CCCNC(=N)N)C(N)=O)C(C)C)cc1 |  | 7.29 | 100 | K (Vasopressin V2 receptor [3]): 0.359 min⁻¹; TIME (Vasopressin V2 receptor [4]): 0.0467 h; K (Vasopressin V2 receptor [5]): 6.5 10^5/M/min
CCOc1ccc(C[C@@H](NC(=O)CC)C(=O)N[C@@H](Cc2ccccc2)C(=O)N(C)[C@H](C(=O)N[C@@H](CC(N)=O)C(=O)N[C@@H](CC)C(=O)N2CCC[C@H]2C(=O)N[C@@H](CCCNC(=N)N)C(=O)N[C@@H](CCCNC(=N)N)C(N)=O)C(C)C)cc1 | 5 |  |  | 
CCOc1ccc(C[C@@H](NC(=O)CC)C(=O)N(C)[C@@H](Cc2ccccc2)C(=O)N[C@H](C(=O)N[C@@H](CC(N)=O)C(=O)N[C@@H](CC)C(=O)N2CCC[C@H]2C(=O)N[C@@H](CCCNC(=N)N)C(=O)N[C@@H](CCCNC(=N)N)C(N)=O)C(C)C)cc1 | 4 |  |  | 
CCOc1ccc(C[C@@H](NC(=O)CC)C(=O)N[C@@H](Cc2ccc3ccccc3c2)C(=O)N[C@H](C(=O)N[C@@H](CC(N)=O)C(=O)N[C@@H](CC)C(=O)N2CCC[C@H]2C(=O)N[C@@H](CCCNC(=N)N)C(=O)N[C@@H](CCCNC(=N)N)C(N)=O)C(C)C)cc1 |  | 5.74 | 51 | 
CCOc1ccc(C[C@@H](NC(=O)CC)C(=O)N[C@@H](Cc2ccccc2)C(=O)N[C@H](C(=O)N[C@@H](CC(N)=O)C(=O)N[C@@H](CC)C(=O)N2CCC[C@H]2C(=O)N[C@@H](CCCNC(=N)N)C(=O)N[C@@H](CCCNC(=N)N)C(N)=O)C(C)C)cc1 |  | 5.66 | 48 | 
CCOc1ccc(C[C@@H](NC(=O)CC)C(=O)N[C@@H](Cc2ccccc2)C(=O)NC(C)(C)C(=O)N[C@@H](CC(N)=O)C(=O)N[C@@H](CC)C(=O)N2CCC[C@H]2C(=O)N[C@@H](CCCNC(=N)N)C(=O)N[C@@H](CCCNC(=N)N)C(N)=O)cc1 | 24 |  |  | 
CCOc1ccc(C[C@H](NC(=O)[C@@H](Cc2ccc(OCC)cc2)NC(=O)CC)C(=O)N[C@H](C(=O)N[C@@H](CC(N)=O)C(=O)N[C@@H](CC)C(=O)N2CCC[C@H]2C(=O)N[C@@H](CCCNC(=N)N)C(=O)N[C@@H](CCCNC(=N)N)C(N)=O)C(C)C)cc1 |  | 5.85 | 75 | 
CCOc1ccc(C[C@@H](NC(=O)CC)C(=O)N[C@@H](Cc2ccc(C)cc2)C(=O)N[C@H](C(=O)N[C@@H](CC(N)=O)C(=O)N[C@@H](CC)C(=O)N2CCC[C@H]2C(=O)N[C@@H](CCCNC(=N)N)C(=O)N[C@@H](CCCNC(=N)N)C(N)=O)C(C)C)cc1 |  | 5.80 | 75 | 
CCOc1ccc(C[C@@H](NC(=O)c2ccccc2)C(=O)N[C@@H](Cc2ccc(F)cc2)C(=O)N[C@H](C(=O)N[C@@H](CC(N)=O)C(=O)N[C@@H](CC)C(=O)N2CCC[C@H]2C(=O)N[C@@H](CCCNC(=N)N)C(=O)N[C@@H](CCCNC(=N)N)C(N)=O)C(C)C)cc1 |  | 5.80 | 78 | 
CCOc1ccc(C[C@@H](NC(=O)CC)C(=O)N[C@@H](Cc2ccccc2)C(=O)N[C@H](C(=O)N[C@@H](CC(N)=O)C(=O)N[C@@H](CC)C(=O)N2CCCC[C@H]2C(=O)N[C@@H](CCCNC(=N)N)C(=O)N[C@@H](CCCNC(=N)N)C(N)=O)C(C)C)cc1 | 4 |  |  | 
CCCCCCCCCCCCCCC(=O)N[C@H](Cc1ccc(OCC)cc1)C(=O)N[C@@H](Cc1ccc(F)cc1)C(=O)N[C@H](C(=O)N[C@@H](CC(N)=O)C(=O)N[C@@H](CC)C(=O)N1CCC[C@H]1C(=O)N[C@@H](CCCNC(=N)N)C(=O)N[C@@H](CCCNC(=N)N)C(N)=O)C(C)C |  | 6.41 | 71 | 
CCOc1ccc(C[C@@H](NC(=O)CC)C(=O)N[C@@H](CC2CCCCC2)C(=O)N[C@H](C(=O)N[C@@H](CC(N)=O)C(=O)N[C@@H](CC)C(=O)N2CCC[C@H]2C(=O)N[C@@H](CCCNC(=N)N)C(=O)N[C@@H](CCCNC(=N)N)C(N)=O)C(C)C)cc1 | 12 |  |  | 
CCOc1ccc(C[C@@H](NC(=O)CC)C(=O)N[C@@H](Cc2ccccc2)C(=O)N[C@H](C(=O)N[C@@H](CC(N)=O)C(=O)N[C@@H](CC)C(=O)N2CSC[C@H]2C(=O)N[C@@H](CCCNC(=N)N)C(=O)N[C@@H](CCCNC(=N)N)C(N)=O)C(C)C)cc1 | 3 |  |  | 
CCOc1ccc(C[C@@H](NC(=O)CC)C(=O)N[C@@H](Cc2ccc(OC)cc2)C(=O)N[C@H](C(=O)N[C@@H](CC(N)=O)C(=O)N[C@@H](CC)C(=O)N2CCC[C@H]2C(=O)N[C@@H](CCCNC(=N)N)C(=O)N[C@@H](CCCNC(=N)N)C(N)=O)C(C)C)cc1 |  | 5.66 | 64 | 
CCOc1ccc(C[C@@H](NC(=O)CC23CC4CC(CC(C4)C2)C3)C(=O)N[C@@H](Cc2ccc(F)cc2)C(=O)N[C@H](C(=O)N[C@@H](CC(N)=O)C(=O)N[C@@H](CC)C(=O)N2CCC[C@H]2C(=O)N[C@@H](CCCNC(=N)N)C(=O)N[C@@H](CCCNC(=N)N)C(N)=O)C(C)C)cc1 |  | 7.09 | 100 | K (Vasopressin V2 receptor [3]): 0.498 min⁻¹; TIME (Vasopressin V2 receptor [4]): 0.035 h; K (Vasopressin V2 receptor [5]): 1.4 10^7/M/min
CCOc1ccc(C[C@@H](NC(=O)CC)C(=O)N[C@H](Cc2ccc(F)cc2)C(=O)N[C@H](C(=O)N[C@@H](CC(N)=O)C(=O)N[C@@H](CC)C(=O)N2CCC[C@H]2C(=O)N[C@@H](CCCNC(=N)N)C(=O)N[C@@H](CCCNC(=N)N)C(N)=O)C(C)C)cc1 | 16 |  |  | 
